Columns and labels:
EGFR = test: Western blotting, EGF-induced phosphorylation; type: cell-based, human; conditions: A549 cells, pretreated 8 h, EGF 10 minutes
Procedure: A549 cells (5×10^5 cells/60 mm) were pretreated with various concentrations of GMI (4, 16 μg/ml) or AG1478 (EGFR inhibitors) for 8 hours prior to incubation for 10 minutes with EGF (as indicated). Cell lysates were subject to immunoblotting with phospho-specific EGFR (Y1068) (A and B), anti-phospho-AKT (A), anti-AKT (A), anti-phospho-GSK3β (A) or anti-phospho-STAT3 antibodies (B). Protein loading was determined by Western blotting against β-actin (A and B).
Total cell lysates were prepared in RIPA buffer (100 μl in 60 mm in dish). Fifty μg of lysate were loaded onto an 8% polyacrylamide gel and analyzed by SDS gel electrophoresis. After transfer to PVDF (Amersham), blots were blocked with 5% skim milk in TBS (10 mM Tris-CL pH7.5, 150 mM NaCl) containing 0.2% Tween-20. Blots were probed with antibodies (at their recommended dilutions) in 5% skim milk in TBS overnight at 4° C. Following detection with the appropriate horseradish-peroxidase conjugated secondary antibody (Cell Signaling), blots were developed by enhanced chemiluminescence according to the manufacturer's directions (Perkin Elmer Life Sciences). All experiments were performed in duplicate.
To assess whether GMI mediates and/or inhibits phosphorylation of Akt and Stat3, the invention investigated the effect of GMI on the phosphorylation status of Akt and Stat3 in A549 cells treated with various concentrations of GMI for 8 h.

A549/D16 = test: MTT assay, drug sensitivity; type: cell-based, human; conditions: for value in parentheses after IC50 (ratio to parental A549): A549/D16; for IC50: Homo sapiens, A549/D16, 48 h, MTT
Procedure: (§1) A549 cell line and resistant A549 cell sublines (A549/D16, A549/D32 and A549/V16) (5000 cells/well of 96-well plate) were treated with increased doses concentrations (μM) of GMI from Ganoderma microsporum, docetaxel, vincristine and doxorubicin for 48 h, respectively. Cell viability was measured by MTT assay and the results are presented as the calculated cell growth inhibitory ratio. Experiments were repeated three times.

A549/D32 = test: MTT assay, drug sensitivity; type: cell-based, human; conditions: for value in parentheses after IC50 (ratio to parental A549): A549/D32; for IC50: Homo sapiens, A549/D32, 48 h, MTT
Procedure: as §1

A549/V16 = test: MTT assay, drug sensitivity; type: cell-based, human; conditions: for value in parentheses after IC50 (ratio to parental A549): A549/V16; for IC50: Homo sapiens, A549/V16, 48 h, MTT
Procedure: as §1

A549 = test: MTT assay, drug sensitivity; type: cell-based, human; conditions: for IC50: Homo sapiens, A549, 48 h, MTT
Procedure: as §1

CaLu-1 cells = test: MTT assay, cisplatin and GMI co-treatment; type: cell-based; conditions: CaLu-1, 48 h, read-out: cisplatin alone concentration needed to achieve about 50% cell viability
Procedure: CaLu-1 cells were co-treated with various concentrations of cisplatin (0, 2.5, 5, 10, 20 μM) and GMI from Ganoderma microsporum (0, 4, 8 and 16 μg/mL) for 48 h followed by MTT assay to estimate cell viability.
MTT assay was used to determine the effect of GMI and cisplatin on the proliferation of Calu-1 cells. In metabolically active cells, MTT (Thiazolyl Blue Tetrazolium Bromide) (Sigma) was reduced by dehydrogenase enzyme into an formazan product. Absorbance was measured directly at 570 nm from 96-well assay plates after adding 100 μl DMSO. The quantity of formazan was considered to be directly proportional to the number of viable cells in the culture.
Briefly, the cells (5×10^3) were incubated on 96-well plates containing 200 μl of growth medium. After 24 h incubation, the medium was carefully removed and 100 μl of fresh medium containing various concentrations of GMI and cisplatin were added to the wells. The cells were treated with GMI and cisplatin continuously for 48 h with 0, 4, 8, 16 μg/ml for GMI and with 0, 2.5, 5 and 10 μM for cisplatin. […] The absorbance was analyzed on a VERSAmax microplate reader at 570 nm. Absorbance values were presented as the mean±SE of 3 replicates for each treatment. […] Absorbance of untreated cells was considered 100%. […]

Row | IC50 (A549/D16) [µM] | IC50 (A549/D32) [µM] | IC50 (A549/V16) [µM] | IC50 (A549) [µM] | SMILES | EGF-induced activation (phosphorylation) of EGFR (EGFR) | value in parentheses after IC50 (ratio to parental A549) (A549/D16) | value in parentheses after IC50 (ratio to parental A549) (A549/D32) | value in parentheses after IC50 (ratio to parental A549) (A549/V16) | value in parentheses after IC50 (ratio to parental A549) (A549) | IC50 (CaLu-1 cells) [µM]
1 |  |  |  |  | COc1cc2ncnc(Nc3cccc(Cl)c3)c2cc1OC [AG1478, reference compound] | able to inhibit EGFR phosphorylation |  |  |  |  | 
2 | 0.73 ± 0.0566 | 2.04 ± 0.955 | 0.78 ± 0.0513 | 0.0064 ± 0.0001 | CC(=O)O[C@@]12CO[C@@H]1C[C@H](O)[C@@]1(C)C(=O)[C@H](O)C3=C(C)[C@@H](OC(=O)[C@H](O)[C@@H](NC(=O)OC(C)(C)C)c4ccccc4)C[C@@](O)([C@@H](OC(=O)c4ccccc4)[C@H]21)C3(C)C [Docetaxel] |  | 114.1 | 318.0 | 121.9 | 1.0 | 
3 | 3.42 ± 0.152 | 7.69 ± 0.148 | 1.53 ± 0.0808 | 0.223 ± 0.0232 | COc1cccc2c1C(=O)c1c(O)c3c(c(O)c1C2=O)C[C@@](O)(C(=O)CO)C[C@@H]3O[C@H]1C[C@H](N)[C@H](O)[C@H](C)O1 [Doxorubicin] |  | 15.4 | 34.6 | 6.9 | 1.0 | 
4 | 0.77 ± 0.0566 | 0.73 ± 0.0283 | 0.76 ± 0.0924 | 0.0149 ± 0.0001 | CC[C@]1(O)C[C@H]2CN(CCc3c([nH]c4ccccc34)[C@@](C(=O)OC)(c3cc4c(cc3OC)N(C=O)[C@H]3[C@@](O)(C(=O)OC)[C@H](OC(C)=O)[C@]5(CC)C=CCN6CC[C@]43[C@@H]65)C2)C1 [Vincristine] |  | 51.9 | 49.2 | 51.2 | 1.0 | 
5 |  |  |  |  | N.N.[Cl][Pt][Cl] [cisplatin] |  |  |  |  |  | ~10

Reference: US9018171B2, “Uses of an immunomodulatory protein (GMI) from Ganoderma microsporum” (Mycomagic Biotechnology Co., Ltd., priority 2010, dated 2015)
